Reference: US20110143406A1, “Novel (S,S) -Butanediol Dehydrogenase, Gene for the Same, and Use of the Same” (Kaneka Corporation, priority 2006, published 2011)

Tested on: ROB ((S,S)-butanediol dehydrogenase)
Test: not given
Type: biochemical, Ochrobactrum sp. KNKc71-3
Conditions: reduction; each compound 1 mM, NADH 0.167 mM, phosphate buffer pH 5.5, 30° C., 3 minutes; activity against 2,3-butanedione taken as 100
For `O=C(CO)CCl` [1-chloro-3-hydroxyacetone], the “Relative activity (%)” value was 94.3%.
With `CC(=O)C(C)=O` [2,3-butanedione] the “Relative activity (%)” value was 100%.
With `CCC(C)=O` [2-butanone] the “Relative activity (%)” value was 0.9%.
For `CCCCCC(C)=O` [2-heptanone], the “Relative activity (%)” value was 3.8%.
With `CCCCC(C)=O` [2-hexanone] the “Relative activity (%)” value was 2.8%.
For `CCCCCCC(C)=O` [2-octanone], the “Relative activity (%)” value was 2.8%.
For `CCCC(C)=O` [2-pentanone], the “Relative activity (%)” value was 2.8%.
In the case of `CCOC(=O)C(Cl)C(C)=O` (stereo not drawn) [Ethyl 2-chloroacetoacetate], the “Relative activity (%)” value is reported as 58.5%.
With `CCOC(=O)CC(=O)CCl` [Ethyl 4-chloroacetoacetate] the “Relative activity (%)” value was 21.7%.
In the case of `CCOC(=O)C(C)=O` [Ethyl pyruvate], the “Relative activity (%)” value is reported as 176%.
With `CC(=O)CO` [Hydroxyacetone] the “Relative activity (%)” value was 17.9%.
With `COC(=O)CC(C)=O` [Methyl acetoacetate] the “Relative activity (%)” value was 65.1%.
With `COC(=O)C(C)=O` [Methyl pyruvate] the “Relative activity (%)” value was 136%.

Tested on: not listed separately
Test: Specific oxidation activity of purified enzyme
Type: biochemical, Ochrobactrum sp. KNKc71-3
Conditions: (2S,3S)-2,3-butanediol 100 mM, NAD+ 2 mM, pH 8.0, 30° C.
Protocol: In the examples described below, the oxidation activity of (S,S)-butanediol dehydrogenase was determined by adding (2S,3S)-2,3-butanediol (100 mM), NAD^+ (2 mM) and an enzyme solution to 100 mM phosphate buffer (pH 8.0) and measuring the increase in absorbance at the wavelength 340 nm at 30° C. The enzyme activity reducing 1 μmol of NAD^+ to NADH per minute was defined as 1 unit.
Ammonium sulfate was added to this active fraction to a concentration of 1 M, and the mixture was submitted to a Phenyl-TOYOPEARL 650M (product of Tosoh) column (50 ml) equilibrated in advance with 10 mM phosphate buffer (pH 7.0) containing 1 M ammonium sulfate for adsorption of the enzyme. After washing the column with the same buffer, the active fraction was eluted on a linear gradient from 1 M to 0 M ammonium sulfate. Ammonium sulfate was added to this active fraction to a concentration of 1.2 M, and the mixture was submitted to a Butyl-TOYOPEARL 650S (product of Tosoh) column (25 ml) equilibrated in advance with 10 mM phosphate buffer (pH 7.0) containing 1.2 M ammonium sulfate for adsorption of the enzyme. After washing the column with the same buffer, the active fraction was eluted on a linear gradient from 1.2 M to 0 M ammonium sulfate. This active fraction was analyzed by sodium dodecyl sulfate-polyacrylamide electrophoresis and found to give a single band. […]
For “ROB: purified (S,S)-butanediol dehydrogenase from Ochrobactrum sp. KNKc71-3, amino acid sequence SEQ ID NO:1”, the specific activity was “about 119 U/mg-protein”.

Tested on: ROB ((S,S)-butanediol dehydrogenase)
Test: not given
Type: biochemical, Ochrobactrum sp. KNKc71-3
Conditions: pH 8
With `[Cl-].[Cl-].[Co+2]` [CoCl2] the “Relative activity (%)” value was 66%.
With `O=C(O)CN(CCN(CC(=O)O)CC(=O)O)CC(=O)O` [EDTA] the “Relative activity (%)” value was 95%.
In the case of `CCN1C(=O)C=CC1=O` [N-ethylmaleimide], the “Relative activity (%)” value is reported as 93%.
With `CC(=O)[O-].[Na+]` [Sodium acetate] the “Relative activity (%)” value was 96%.

Same assay, conditions: reagent 0.1 mM; (2S,3S)-2,3-butanediol 0.1 M, NAD+ 2 mM, pH 8.0, 30° C.; reagent-free activity taken as 100
In the case of `[Cl][Hg][Cl]` [HgCl2], the “Relative activity (%)” value is reported as 41%.

Same assay, conditions: reagent 1.0 mM; (2S,3S)-2,3-butanediol 0.1 M, NAD+ 2 mM, pH 8.0, 30° C.; reagent-free activity taken as 100
For `O=[N+]([O-])[O-].[Ag+]` [AgNO3], the “Relative activity (%)” value was 30%.
In the case of `[Ba+2].[Cl-].[Cl-]` [BaCl2], the “Relative activity (%)” value is reported as 56%.
In the case of `[Ca+2].[Cl-].[Cl-]` [CaCl2], the “Relative activity (%)” value is reported as 86%.
With `O=S(=O)([O-])[O-].[Cu+2]` [CuSO4] the “Relative activity (%)” value was 81%.
In the case of `[Cl][Hg][Cl]` [HgCl2], the “Relative activity (%)” value is reported as 0%.
For `O=S(=O)([O-])[O-].[Mg+2]` [MgSO4], the “Relative activity (%)” value was 91%.
In the case of `[Cl][Mn][Cl]` [MnCl2], the “Relative activity (%)” value is reported as 87%.
For `O=S(=O)(F)Cc1ccccc1` [Phenylmethylsulfonyl fluoride], the “Relative activity (%)” value was 75%.
For `O=S(=O)([O-])[O-].[Zn+2]` [ZnSO4], the “Relative activity (%)” value was 88%.
For `O=C(O)c1cc[c]([Hg][Cl])cc1` [p-chloromercuribenzoate], the “Relative activity (%)” value was 84%.

Tested on: ROB ((S,S)-butanediol dehydrogenase)
Test: Substrate specificity of ROB: oxidation activity
Type: biochemical, Ochrobactrum sp. KNKc71-3
Conditions: each compound 10 mM, NAD+ 2 mM, phosphate buffer pH 8.0, 30° C., 1 minute, activity against 2,3-butanediol taken as 100
Protocol: Using the purified ROB obtained in Example 1, oxidation activity measurements were carried out by adding NAD^+ (2 mM), each compound (10 mM) shown in Table 2 and the enzyme solution to 100 mM phosphate buffer (pH 8.0), the reaction was allowed to proceed at 30° C. for 1 minute, and the increase in absorbance at the wavelength 340 nm was measured. The relative activity data are summarized in Table 2, with the activity against 2,3-butanediol being taken as 100.
With `CCC(O)CO` (stereo not drawn) [1,2-butanediol] the “Relative activity (%)” value was 8.2%.
For `CCCC(O)CO` (stereo not drawn) [1,2-pentanediol], the “Relative activity (%)” value was 4.4%.
For `CC(O)CO` (stereo not drawn) [1,2-propanediol], the “Relative activity (%)” value was 57.9%.
For `CC(O)CCO` (stereo not drawn) [1,3-butanediol], the “Relative activity (%)” value was 0.5%.
For `CC(O)CCCO` (stereo not drawn) [1,4-pentanediol], the “Relative activity (%)” value was 3.3%.
With `CCCCO` [1-butanol] the “Relative activity (%)” value was 0%.
With `CC(O)CCl` (stereo not drawn) [1-chloro-2-propanol] the “Relative activity (%)” value was 7.7%.
In the case of `CC(O)c1ccccc1` (stereo not drawn) [1-phenyl ethanol], the “Relative activity (%)” value is reported as 6.8%.
With `CC(O)Cc1ccccc1` (stereo not drawn) [1-phenyl-2-propanol] the “Relative activity (%)” value was 43.0%.
For `CCCO` [1-propanol], the “Relative activity (%)” value was 0%.
For `CC(O)C(C)O` (stereo not drawn) [2,3-butanediol], the “Relative activity (%)” value was 100%.
With `CCC(C)O` (stereo not drawn) [2-butanol] the “Relative activity (%)” value was 40.4%.
In the case of `CCCCCCC(C)O` (stereo not drawn) [2-octanol], the “Relative activity (%)” value is reported as 59.6%.
For `CCCC(C)O` (stereo not drawn) [2-pentanol], the “Relative activity (%)” value was 58.8%.
With `CC(C)O` [2-propanol] the “Relative activity (%)” value was 5.1%.
For `OCC(O)CCl` (stereo not drawn) [3-chloro-1,2-propanediol], the “Relative activity (%)” value was 3.9%.
For `CCC(O)CC` [3-pentanol], the “Relative activity (%)” value was 3.3%.
In the case of `CC(=O)C(C)O` (stereo not drawn) [Acetoin], the “Relative activity (%)” value is reported as 0.4%.
For `CCO` [Ethanol], the “Relative activity (%)” value was 0%.
For `CCOC(=O)C(C)O` (stereo not drawn) [Ethyl lactate], the “Relative activity (%)” value was 1.6%.
With `CO` [Methanol] the “Relative activity (%)” value was 0%.
With `COC(=O)C(C)O` (stereo not drawn) [Methyl lactate] the “Relative activity (%)” value was 0.9%.

Tested on: ROB ((S,S)-butanediol dehydrogenase)
Test: not given
Type: biochemical, Ochrobactrum sp. KNKc71-3
Conditions: oxidation; each compound 10 mM, NAD+ 2 mM, pH 8.0, 30° C., 1 minute; activity against (2S,3S)-2,3-butanediol taken as 100
Protocol: Using the purified ROB obtained in Example 1, oxidation activity measurement were carried out using, as substrates, optical isomers of each of 2-butanol, 2-pentanol, 1,2-propanediol, 2,3-butanediol and 3-chloro-1,2-propanediol. NAD^+ (2 mM), each compound (10 mM) and the enzyme solution were added to 100 mM phosphate buffer (pH 8.0), the reaction was allowed to proceed at 30° C. for 1 minute, and the increase in absorbance at the wavelength 340 nm.
For `C[C@@H](O)[C@@H](C)O` [(2R,3R)-2,3-butanediol], the “Relative activity (%)” value was 0.6%.
For `C[C@H](O)[C@H](C)O` [(2S,3S)-2,3-butanediol], the “Relative activity (%)” value was 100%.
With `C[C@@H](O)CO` [(R)-1,2-propanediol] the “Relative activity (%)” value was 8.0%.
For `CCC[C@@H](C)O` [(R)-2-pentanol], the “Relative activity (%)” value was 2.9%.
With `OC[C@@H](O)CCl` [(R)-3-chloro-1,2-propanedio] the “Relative activity (%)” value was 3.5%.
With `C[C@H](O)CO` [(S)-1,2-propanediol] the “Relative activity (%)” value was 16.7%.
For `CCC[C@H](C)O` [(S)-2-pentanol], the “Relative activity (%)” value was 58.9%.
With `OC[C@H](O)CCl` [(S)-3-chloro-1,2-propanediol] the “Relative activity (%)” value was 0.1%.
In the case of `CC(O)C(C)O` (stereo not drawn) [meso-2,3-butanediol], the “Relative activity (%)” value is reported as 38.9%.

Same assay, conditions: pH 8
For `CC[C@@H](C)O` [(R)-2-butanol], the “Relative activity (%)” value was 3.2%.
In the case of `CC[C@H](C)O` [(S)-2-butanol], the “Relative activity (%)” value is reported as 44.2%.

Tested on: not listed separately
Test: Optimum temperature for action of ROB
Type: biochemical, Ochrobactrum sp. KNKc71-3
Conditions: (2S,3S)-2,3-butanediol oxidation, measured at 10 to 70° C., pH 8.0
Protocol: Using the purified ROB obtained in Example 1, (2S,3S)-2,3-butanediol oxidation activity measurements were carried out at 10 to 70° C. In the activity measurements, (2S,3S)-2,3-butanediol (0.1 M), NAD^+ 2 mM and the enzyme solution were added to 100 mM phosphate buffer (pH 8.0), the reaction was allowed to proceed at 10 to 70° C. for 1 minute, and the increase in absorbance at the wavelength 340 nm were measured.
For “ROB: purified (S,S)-butanediol dehydrogenase from Ochrobactrum sp. KNKc71-3, amino acid sequence SEQ ID NO:1”, the “optimum temperature for the activity” value was 70 °C.
